Measured values: US7727972B2, “Methods for determining absorption of cobalamin or analogues thereof” (DrugTech Corporation, priority 2004, dated 2010)

Test system: Anti haptocorrin antibodies (ELISA)
Test: Cross-reactivity of the haptocorrin ELISA towards other cobalamin binding proteins
Design: species or system rabbit
Details: 60 nmol/L in the assay mixture
Experimental: Antibodies. Anti haptocorrin was produced by DakoCytomation A/S, Denmark by immunising rabbits with 200 μg pure haptocorrin produced as previously described (12) and deglycosylated as described above. The gamma globulin fraction was pre-pared (13) from serum obtained after 7 immunisations.
ELISA. The principle of the ELISA assay used was an immobilised capture antibody (0.1 ug gamma globulin/well, rabbit nr F7773) catching the analyte and a biotinylated detection antibody (gamma globulin 3 ug/L, rabbit nr 7772) visualised by avidin/Horse Radish Peroxidase (HRP). Colour development by addition of 3,3′,5,5′-tetramethyl-benzidin was proportional to the concentration of analyte. The assay procedure was as previously described for transcobalamin (14, 15). In brief, calibrator, sample or control (100 μL, final dilution 1:30) was incubated for 1 hour at room temperature prior to washing and incubation for 30 min with the biotinylated detection antibody. The attached biotinylated antibody was detected employing avidin/HRP and colour development was determined by measuring the absorbance at 420 nm and correcting for the absorbance at 620 nm. The calibrator employed was deglycosylated pure human haptocorrin. All samples were run in true duplicates, where deglycosylation was performed on two independent samples.
Samples. […]

cross-reactivity in haptocorrin ELISA: No cross-reactivity
Substance: intrinsic factor: cobalamin binding protein; pure IF dissolved in phosphate buffer 0.1 M containing albumin 0.1%
